According to ChEMBL document CHEMBL4196165, “Catenulobactins A and B, Heterocyclic Peptides from Culturing Catenuloplanes sp. with a Mycolic Acid-Containing Bacterium” (J Nat Prod, 2018):
pIC50: −log10 of the molar value. The source made the active and inactive calls. The rule behind the calls is not given here.

Key:
[1] = Metal chelating activity assessed as compound-Fe3+ complex formation after 1 hr by LC/MS analysis
P388 [2] = test: Cytotoxicity against mouse P388 cells after 4 days by MTT assay; type: functional, cell-based; conditions: P388, 96 h
[3] = Stability of the compound in physiological conditions at pH > 7; type: physicochemical
P388 [4] = test: Cytotoxicity against mouse P388 cells up to 100 uM after 4 days by MTT assay; type: functional, cell-based

Activity [1]	Stability [3]	SMILES	pIC50 (P388 [2])	Activity (P388 [4])
Active	Unstable	C[C@H]1OC(c2ccccc2O)=N[C@@H]1C(=O)N[C@H](CCCN(O)C(=O)[C@H]1N=C(c2ccccc2O)O[C@@H]1C)C(=O)O	4.65	–
inactive	–	C[C@@H]1ON(CCC[C@@H](NC(=O)[C@H]2N=C(c3ccccc3O)O[C@@H]2C)C(=O)O)C(=O)[C@H]1NC(=O)c1ccccc1O	–	inactive
